From patent US10034839B2, “Compositions and methods for delivery of kinase inhibiting peptides” (PURDUE RESEARCH FOUNDATION, priority 2012, dated 2018)

How the values were obtained:
blood = assay: Hemolysis assay ASTM F756; assay type: cell-based; details: nanoparticles 1.5 mg/ml, 37° C., 3 hours; Triton X-100 .01% by volume
Experimental: After 1000 seconds, experiments in the presence of heparin were stopped due to lack of clotting. Hemolytic assay ASTM standard protocol F756 was used to check if hemolysis occurred upon the addition of poly(NIPAm-MBA-AMPS) to the blood.
Hemolysis assays were performed following ASTM F756 with a BioSpec-1601 spectrophotometer (Shimadzu, Columbia, Md., USA). Determination of total blood hemoglobin was accomplished by using Drabkin's reagent and measuring the absorbance of free hemoglobin in solution at 540 nm. The total blood hemoglobin concentration was used to adjust the hemoglobin content of the blood sample to 10 mg±1 mg by adding blood and an equivalent amount of IX PBS solution. Percent hemolysis was normalized by dividing total hemolysis determined by a 0.01% v/v of Triton X-100, subtracting the absorbance of blood only, and setting absorbance of PBS to zero. Blood, 1 ml, was incubated with 100 μl of a 1.5 mg/ml solution of the nanoparticles in PBS at 37° C. for three hours under gentle shaking. After three hours samples were centrifuged at 750 g for 15 minutes. Supernatant was removed, added 1:1 to equivalent volume of Drabkins reagent, and incubated for 15 minutes before measurement. Absorbance measurements at 540 nm were then recorded using a spectrophotometer.

[1] = previously reported; cited from earlier work
[2] = test system: IL-6 production in cartilage plugs; assay: IL-6 ELISA in bovine knee ex vivo inflammatory model; details: IL-1β stimulated aggrecan depleted plugs, treatment every two days
Experimental: Cartilage plugs were obtained from three month old bovine knee joints obtained from an abattoir within 24 hours of slaughter (Dutch Valley Veal, South Holland, Ill., USA). The plugs were removed from the load bearing region of the femoral condyle using a 3 mm diameter cork borer. They were then washed three times in serum free medium and equilibrated for three days in 5% FBS supplemented media. Osteoarthritis (OA)-like conditions were simulated by removal of native aggrecan using a previously described protocol. Briefly, plugs were treated with 0.5% (w/v) trypsin in HBSS for 3 hours at 37° C. After trypsin treatment plugs were washed three times in HBSS and incubated with 20% FBS to inactivate residual trypsin activity. Inflammation was initiated in the plugs by treating with 20 ng/mL II-1β. Nanoparticle treatments as specified in Table 1, were added after day two of culture. Fresh IL-1β and nanoparticles were added every two days for an eight day culture period. Media aliquots were collected and stored in −80° C. till further analysis.
IL-6 production was determined with a bovine IL-6 ELISA development kit (Thermo Scientific, Rockford, Ill., USA). Capture antibody was coated overnight onto Nunc MaxiSorp 96-well plates. […] The plate was read on absorbance plate reader at 450 nm with a correction at 550 nm. […]

THP-1 cells = details: THP1; corresponds to 60 μg dose of loaded particles; cited from earlier work
[3] = KAFAK degradability assay in serum; assay type: in vitro ADME; details: for recovery at 12 hours / Integral of KAFAK Peak between 30-31% Acetonitrile: 12 hours at 37° C., then 24 hours at 4° C. (nanoparticles: purify & release in 2x salt)
Experimental: Samples tested include: peptide alone, serum alone, peptide in serum, and KAFAK loaded 5% AMPS nanoparticles in serum. Each sample volume also contained 0.5× PBS except when stated. Samples containing peptide initially contained 0.5 mg of peptide alone or 1.12 mg of loaded 5% AMPS particles with an equivalent amount of 0.5 mg peptide. Samples with serum were 0.5× serum and 0.5×PBS. Samples without serum were 0.5×PBS and 0.5× MilliQ water. Peptide alone, serum alone, peptide in serum, loaded nanoparticles alone, and loaded nanoparticles in serum were incubated for 12 hours at 37° C. on a shaker. After the 12 hour incubation, samples not containing nanoparticles were placed in the fridge at 4° C. for 24 hours before evaluation. Samples containing nanoparticles were centrifuged for 2 hours at room temperature at 30,000 rpm in an Optima L-90k Ultracentrifuge (Beckman Coulter, Indianapolis, Ind., USA). The nanoparticle pellet was briefly washed with MilliQ water and then resuspended in solution of 0.5×PBS and 0.5× MilliQ water. Samples were then placed in the fridge for 24 hours. Before the 24 hour nanoparticle sample was placed in the fridge to incubate, but after the pellet was dissolved, an additional amount of 0.257 molar concentration of NaCl was added to induce peptide release. This brought the final NaCl concentration to 0.342 molar or twice normal salt concentration in PBS. Additional NaCl was added to facilitate total release by introducing additional counter ions. Samples were evaluated by reverse phase chromotography on a FPLC (AKTA Explorer, GE Healthcare, Pittsburgh Pa., USA) with a 22/250 C18 prep-scale column (Grace Davidson, Deerfield, Ill., USA) and an acetonitrile gradient with 0.1% trifluoroacetic acid. Peptide was quantified by integrating the area under the peak of the FPLC. Peptide molecular weight was confirmed by time of flight MALDI mass spectrometry with a 4800 Plus MALDI TOF/TOF Analyzer (Applied Biosystems, Foster City, Calif., USA).

[4] = test system: citrated bovine whole blood; assay: Activated partial thromboplastin time (whole blood coagulation time); details: for Whole Blood Coagulation Time (s) Average (n = 3): nanoparticles 1.5 mg/ml final concentration in blood, collagen 6 mg/ml, heparin .001 mg/ml; for effect on coagulation: whole blood, nanoparticles 1.5 mg/ml
Experimental: Activated partial thromboplastin time (aPTT) was measured using a Hemochron® Response whole blood coagulation system. 2 ml citrated bovine whole blood and 200 μL nanoparticles in phosphate buffered saline (PBS) pH 7.4 (1.5 mg/ml final concentration in blood) were added to Hemochron® tubes containing colloidal kaolin activating agent and 0.02% thimerosal preservative agent. PBS was calcium and magnesium free. The tubes were then measured and aPTT was recorded. The aPTT for each sample was measured in triplicate. […] Louis, Mo., USA). Measurements with heparin were stopped after 1000 seconds.
As part of a preliminary assessment of utilizing poly(NIPAm-MBA-AMPS) as a blood contacting drug delivery vehicle, whole blood studies were done to determine the hemocompatibility of this system.

Triton X-100
Normalized Whole Blood % Hemolysis Average (n = 3) (blood): 100%

CC(C)C[C@H](NC(=O)[C@H](C)NC(=O)[C@H](CCCCN)NC(=O)[C@H](CCCNC(=N)N)NC(=O)[C@H](Cc1ccc(O)cc1)NC(=O)[C@H](CC(C)C)NC(=O)[C@H](CCCNC(=N)N)NC(=O)[C@H](C)NC(=O)[C@H](C)NC(=O)[C@H](CC(C)C)NC(=O)[C@H](CCCCN)NC(=O)[C@H](C)NC(=O)[C@H](Cc1ccccc1)NC(=O)[C@H](C)NC(=O)[C@@H](N)CCCCN)C(=O)N[C@@H](C)C(=O)N[C@@H](CCCNC(=N)N)C(=O)N[C@@H](CCC(N)=O)C(=O)N[C@@H](CC(C)C)C(=O)NCC(=O)N[C@H](C(=O)N[C@@H](C)C(=O)N[C@@H](C)C(N)=O)C(C)C [KAFAK]
serum half-life [1]: less than 12 hours
effect on IL-6 production [2]: lack of therapeutic activity
upper toxicity limit (THP-1 cells): 30 µM
recovery at 12 hours ([3]; 0.5× PBS and 0.5× MilliQ water (without serum), without serum): 100%
Integral of KAFAK Peak between 30-31% Acetonitrile ([3]; in serum): 0 mAU * ml
recovery at 12 hours ([3]; in serum): 0%
time within which KAFAK peptide degraded ([3]; serum, 37° C., without a carrier): ≤ 12 h
Integral of KAFAK Peak between 30-31% Acetonitrile ([3]; without serum): 593.3 mAU * ml

Heparin
Whole Blood Coagulation Time (s) Average (n = 3) [4]: >1000 s
effect on coagulation [4]: inhibit coagulation

Collagen
Whole Blood Coagulation Time (s) Average (n = 3) [4]: 26 s
effect on coagulation [4]: induce clotting
